The values below come from PubChem BioAssay (NCI).

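In this assay, cells in 96-well plates receive the compound at five concentrations for 48 hours. Endpoints are linearly interpolated between the surrounding concentrations. TGI marks complete inhibition of growth.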

Holding throughout (experiment): NCI-60 cell line screen, 48 h
Assay [1] relates to 786-0 renal.
Assay [2] concerns DU-145 prostate.
For assay [3], the system named is IGROV1 ovarian.
For assay [4], the system named is K-562 leukemia.
The subject of assay [5] is LOX IMVI melanoma.
The subject of assay [6] is RPMI-8226 leukemia.
The test system of assay [7] is RXF 393 renal.
The subject of assay [8] is SNB-19 CNS.
Assay [9] deals with TK-10 renal.
For assay [10], the system named is U251 CNS.

As for `N#Cc1c(C#N)c(-c2ccccc2)n(/N=C\c2ccccc2)c1N`, the TGI in [1] was over 100 µM; in [2], over 100 µM; in assay [3], 84.7 µM; in [4], over 100 µM; in assay [5], 32.8 µM; in assay [6] it was 40.1 µM. Moreover, the TGI in [7] is 70.5 µM; in assay [8], over 100 µM; in [9] it was over 100 µM; in [10], 47.4 µM.

As to `O=c1/c(=C/c2ccc(-c3ccc(Cl)cc3Cl)o2)sc2n1[C@@H](c1ccc3c(c1)OCO3)C=C(c1cc(F)c(Cl)cc1Cl)N=2`, the TGI in assay [1] is over 100 µM; in assay [2], over 100 µM; in assay [3], over 100 µM; in assay [4], over 100 µM; in assay [5], over 100 µM; in assay [6] it was 88 µM. The TGI was over 100 µM in assay [7], 95.4 µM in assay [8], 59 µM in assay [9] and over 100 µM in assay [10].

On to `COC1=CC(=O)c2c(cc(COP(=O)(N(C)CCBr)N(C)CCBr)n2C)C1=O`, for which the TGI in assay [1] was 2.87 µM; in [2], 19.5 µM; in assay [3], 19.2 µM; in assay [4] it was over 100 µM; in assay [5], 3.31 µM; in assay [6], 4.11 µM. Also, the TGI in assay [7] was 1.95 µM; in assay [8], 14.7 µM; in [9], 2.01 µM; in assay [10] it was 8.43 µM.

With `O=C(NCc1ccccc1)c1c(O)c2ccccc2[nH]c1=O`, the TGI in assay [1], in assay [2], in assay [3], in assay [4], in assay [5] and in assay [6] was over 100 µM each time. In addition, the TGI in assay [7], in assay [8], in assay [9] and in assay [10] was over 100 µM throughout.

In the case of `CC(C)CC(NC(=O)C(COc1ccc([N+](=O)[O-])cc1)Cc1ccccc1)C(=O)Nc1ccccc1` (stereo not given), the TGI is 29.5 µM in assay [1]; over 100 µM in [2]; 31.2 µM in assay [3]; over 100 µM in assay [4]; over 100 µM in assay [5]; over 100 µM in [6]. Moreover, the TGI came to 41.6 µM in assay [7], 20.2 µM in assay [8], 50.3 µM in [9] and 28.7 µM in assay [10].

Take `CCCCCCCCCCCCCCCCNc1ccn(C2CC(OP(=O)(O)OCC3OC(n4cc(CC)c(=O)[nH]c4=O)CC3O)C(CO)O2)c(=O)n1` (stereo not given): the TGI is over 100 µM in assay [1]; over 100 µM in [2]; over 100 µM in assay [3]; 44.9 µM in [4]; over 100 µM in [5]; 38.8 µM in assay [6]. Besides, the TGI is 46.4 µM in assay [7], 31.7 µM in assay [8], over 100 µM in [9] and 89.3 µM in assay [10].

Take `S=C(Nc1ccc2c(c1)Cc1ccccc1-2)Nc1ccc2c(c1)Cc1ccccc1-2`: the TGI in assay [1] was over 100 µM; in assay [2], over 100 µM; in assay [3] it was over 100 µM; in assay [4] it was 74.5 µM; in assay [5], over 100 µM; in assay [6], over 100 µM. The TGI in assay [7], in assay [8], in assay [9] and in [10] was over 100 µM throughout.

As to `COC(=O)C1[C@H](C(=O)OC)C1(Br)CBr` (stereo not given in full), the TGI in assay [1], in [2], in assay [3], in assay [4], in assay [5] and in [6] was over 100 µM each time. The TGI in assay [7], in assay [8], in assay [9] and in assay [10] was over 100 µM throughout.

On to `O=C(NCc1cccnc1)C(=O)NCc1cccnc1`, for which the TGI in [1], in assay [2], in [3], in [4], in [5] and in [6] was over 100 µM each time. Besides, the TGI in [7], in assay [8], in assay [9] and in [10] was over 100 µM each time.

Regarding `Nc1ccc(-c2nc3ccccc3s2)cc1`, the TGI in assay [1] turned out to be 29.7 µM; in assay [2], 31.6 µM; in assay [3], 48.7 µM; in assay [4] it was 58.4 µM; in assay [5] it was 33 µM; in assay [6] it was 61.1 µM. Further, the TGI in assay [7] was found to be 33.5 µM; in assay [8] it was 61.5 µM; in [9], 42.3 µM; in assay [10] it was 31.9 µM.
